Experiments:
C57BL/6 mice = assay: Mouse Study III: MTX-induced infection measured as WBC counts; assay type: in vivo; settings: Day 11
Procedure: C57BL/6 mice (n=10/dose group), treated i.p. 50 mg/kg MTX on Day 1, 2, 3, 4, 6 and 8 along with 60 mg/kg TK-1126901.p. 3 hr±MTX followed by single daily doses TK-112690 on days not treated with MTX. On Day 11, the animals were sacrificed and hematology performed on the resulting blood. Group 1=saline control, Group 2=MTX control and Group 3=MTX+TK-112690.
Several parameters have been examined in an effort to develop a model to confirm the protection from mucositis observed in the LPS/MTX assay. On examination of complete blood counts (CBCs), consistently elevated levels of white blood cell counts (WBCs) are observed when mice are treated with MTX (FIG. 4). This increase is not observed in animals that are also treated with TK-112690 (FIG. 4). […] LPS is a large molecule on the outer membrane of Gram negative bacteria. Tissues exposed to LPS express pro-inflammatory cytokines such as TNF-α and […]. Increases in these cytokines due to exposure of tissues to LPS generate an immune response which, in turn, increases WBCs.
For the study whose data are presented in FIG. 4, C57BL/6 mice (n=10/dose group) were treated i.p. with 50 mg/kg MTX on Day 1, 2, 3, 4, 6 and 8 along with 60 mg/kg TK-1126901.p. 3 hr±MTX followed by single daily doses TK-112690 on days not treated with MTX. On Day 11, the animals were bled and hematology performed on the resulting blood samples. […]

CCRF-CEM human tumors = assay: Mouse Study IV: xenograft with CCRF-CEM implants; assay type: in vivo, SCID mice
Procedure: In this study, n=10 SCID mice per dose group were treated with CCRF-CEM human tumors and the tumors allowed to grow to a size of approximately 100 mg. Then the animals were treated by intraperitoneal (ip) injection with either control 20% DMSO/80% PBS (1×/day)×5 days (Group 1), MTX 7.5 mg/kg/injection (1×/day)×5 days (Group 2) or MTX 7.5 mg/kg/inj. (1×/day)×5 days+TK-112690 30 mg/kg/inj.±3 hrs (group 3). The Figure provides tumor sizes in each of the 3 groups on Day 27 of the study.
A xenograft study was performed to analyze the effect of TK-112690. administration on the in vivo efficacy of MTX against a human cancer. Human CCRF-CEM (T-ALL) cells were implanted subcutaneously into SCID mice. Tumor volumes were recorded on a regular basis, and once tumors had become established, treatment was given. […] All treatments were given ip, and TK-112690 was give 3 hours prior to and 3 hours after MTX administration.

C57Bl/6 female mice = assay: Mouse Study II: MTX-induced loss of mucosal permeability (plasma iodixanol); assay type: in vivo; settings: day 7
Procedure: C57Bl/6 female mice (n=7) were treated intraperitoneal (ip) with 100 mg/kg MTX on days 2, 3 and 4 with and without 60 mg/kg TK-112690 (ip) three hours before, and after, MTX injections. On day 7, mucosal barrier injury was estimated by measuring plasma concentrations of orally administered iodixanol determined by HPLC using UV detection (Boxplots with minimum and maximum values (black lines). Orally administered iodixanol is not absorbed absent an increase in mucosal permeability. Group 1=saline control, Group 2=MTX and Group 3=MTX+TK-112690.
The aim of this study was to evaluate the ability of a representative a 2,2′-anhydropyrimidine test article to mitigate MTX-induced loss of mucosal permeability. C57Bl/6 female mice (n=7) were treated (ip) with 100 mg/kg MTX on days 2, 3 and 4 with and without 60 mg/kg TK-112690 (ip) three hours before, and after, MTX injections. On day 7, mucosal barrier injury was estimated by measuring plasma concentrations of orally administered iodixanol determined by HPLC using UV detection. Orally administered iodixanol is not absorbed absent an increase in mucosal permeability.

Row | Structure (SMILES) | systemic WBC (C57BL/6 mice; 50 mg/kg MTX ip Day 1, 2, 3, 4, 6 and 8) | tumor volume day 27, treatment vs saline (CCRF-CEM human tumors; MTX 7.5 mg/kg/injection ip (1×/day)×5 days) | mucosal barrier injury (plasma concentration of orally administered iodixanol) (C57Bl/6 female mice; 100 mg/kg MTX ip on Days 2, 3 and 4) | protection from MTX-induced mucositis measured as WBC counts (C57BL/6 mice; 60 mg/kg ip with MTX 50 mg/kg) | tumor volume day 27, MTX+TK-112690 vs MTX (CCRF-CEM human tumors; TK-112690 30 mg/kg ip 3 hours prior to and after MTX 7.5 mg/kg) | protection from MTX-induced mucosal barrier injury (plasma concentration of orally administered iodixanol) (C57Bl/6 female mice; 60 mg/kg ip three hours before and after MTX 100 mg/kg, days 2, 3, 4)
1 | CN(Cc1cnc2nc(N)nc(N)c2n1)c1ccc(C(=O)N[C@@H](CCC(=O)O)C(=O)O)cc1 [MTX, N-[4-[[(2,4-diamino-6-pteridinyl)methyl]methylamino]benzoyl]-L-glutamic acid, reference compound] | increases systemic WBC | significantly different | experienced mucosal barrier injury | – | – | –
2 | Cc1cn2c(nc1=O)O[C@H]1[C@H](O)[C@@H](CO)O[C@H]12 [TK-112690, 2,2′-anhydro-5-methyluridine] | – | – | – | protects from MTX-induced mucositis | not significantly different | protected mice from MTX-induced mucosal barrier injury

From patent USRE48253E1, “Methotrexate adjuvants to reduce toxicity and methods for using the same” (Tosk, Inc., priority 2008, dated 2020)
